# Activity calls are given as the source filed them.
# Columns and labels:
# [1] = target: T1, Polyadenylate-binding protein 1 (Homo sapiens, UniProt P11940); assay: PABP1 MLLE–PAM2 interaction inhibitors, dose response, miRNA deadenylation inhibitor project, biochemical, fluorescence polarization, Cy5-PAM2 peptide, secondary (AID 602260); assay type: functional; conditions: read-out: IC50_Mean
# [2] = target: T1, Polyadenylate-binding protein 1; assay: PABP1 MLLE–PAM2 binding inhibitor potency, dose response, biochemical, fluorescence polarization, FITC-PAM2 peptide (AID 602259); assay type: functional; conditions: read-out: IC50_Mean
# [3] = target: T2, RNA-binding protein pos-1 (Caenorhabditis elegans, UniProt G5EF15); assay: inhibitors of POS-1/mex-3 RNA binding, dose response, biochemical, fluorescence polarization (AID 1964);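 also: purified POS-1 fused to maltose binding protein made in E. coli; potency of compounds blocking POS-1 binding to fluorescent RNA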
# T2 sequence (G5EF15 whole entry): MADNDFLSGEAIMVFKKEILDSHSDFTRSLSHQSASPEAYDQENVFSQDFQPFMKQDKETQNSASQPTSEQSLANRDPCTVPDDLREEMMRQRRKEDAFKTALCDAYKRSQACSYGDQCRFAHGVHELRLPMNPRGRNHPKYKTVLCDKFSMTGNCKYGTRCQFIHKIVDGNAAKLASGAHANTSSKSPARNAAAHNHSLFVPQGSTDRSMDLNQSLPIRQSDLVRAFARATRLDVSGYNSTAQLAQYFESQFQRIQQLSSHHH
# [4] = target: T3, Zinc finger protein mex-5 (Caenorhabditis elegans, UniProt Q9XUB2); assay: MEX-5/TCR-2 RNA interaction inhibitors, dose response, biochemical, C. elegans, fluorescence polarization (AID 1960)
# T3 sequence (Q9XUB2 whole entry): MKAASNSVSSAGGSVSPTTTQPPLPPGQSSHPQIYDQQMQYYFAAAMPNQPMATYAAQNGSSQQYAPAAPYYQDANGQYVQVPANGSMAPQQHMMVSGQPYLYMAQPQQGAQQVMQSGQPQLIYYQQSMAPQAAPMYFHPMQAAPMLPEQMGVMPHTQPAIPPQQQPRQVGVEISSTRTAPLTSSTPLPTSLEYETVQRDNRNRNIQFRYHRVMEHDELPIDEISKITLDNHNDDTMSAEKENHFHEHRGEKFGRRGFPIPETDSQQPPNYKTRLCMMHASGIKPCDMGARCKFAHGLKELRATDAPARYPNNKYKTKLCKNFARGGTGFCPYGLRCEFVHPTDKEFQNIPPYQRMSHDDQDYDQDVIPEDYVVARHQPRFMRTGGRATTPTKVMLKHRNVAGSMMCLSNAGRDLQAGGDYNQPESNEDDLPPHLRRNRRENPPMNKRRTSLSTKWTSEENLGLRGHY
# [5] = target: T4, Rac GTPase-activating protein 1 (Homo sapiens, UniProt Q9H0H5); assay: MgcRacGAP GTPase-activating activity inhibitors, confirmation, biochemical, ADP Hunter fluorescence, primary and confirmatory (AID 624330); assay type: functional
# T4 sequence (Q9H0H5 whole entry): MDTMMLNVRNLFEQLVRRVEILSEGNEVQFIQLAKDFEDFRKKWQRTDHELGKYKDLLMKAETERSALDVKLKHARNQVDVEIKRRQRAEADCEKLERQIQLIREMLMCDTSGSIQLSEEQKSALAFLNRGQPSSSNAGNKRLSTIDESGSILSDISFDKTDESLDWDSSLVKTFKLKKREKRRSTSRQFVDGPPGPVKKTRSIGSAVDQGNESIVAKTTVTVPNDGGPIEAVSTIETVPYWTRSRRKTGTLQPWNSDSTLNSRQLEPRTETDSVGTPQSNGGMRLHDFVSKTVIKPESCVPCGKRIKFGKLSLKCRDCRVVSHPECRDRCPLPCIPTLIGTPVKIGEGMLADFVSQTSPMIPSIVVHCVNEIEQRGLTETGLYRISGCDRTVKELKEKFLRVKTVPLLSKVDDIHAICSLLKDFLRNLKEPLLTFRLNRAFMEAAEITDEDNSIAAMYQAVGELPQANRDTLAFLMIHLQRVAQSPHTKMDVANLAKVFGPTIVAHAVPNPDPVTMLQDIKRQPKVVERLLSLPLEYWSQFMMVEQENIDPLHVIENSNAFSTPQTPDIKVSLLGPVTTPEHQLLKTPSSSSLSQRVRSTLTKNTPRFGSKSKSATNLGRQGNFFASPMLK
# Protein skinhead-1 = target: T5, Protein skinhead-1 (Caenorhabditis elegans, UniProt P34707); assay type: functional
# T5 sequence (P34707 whole entry): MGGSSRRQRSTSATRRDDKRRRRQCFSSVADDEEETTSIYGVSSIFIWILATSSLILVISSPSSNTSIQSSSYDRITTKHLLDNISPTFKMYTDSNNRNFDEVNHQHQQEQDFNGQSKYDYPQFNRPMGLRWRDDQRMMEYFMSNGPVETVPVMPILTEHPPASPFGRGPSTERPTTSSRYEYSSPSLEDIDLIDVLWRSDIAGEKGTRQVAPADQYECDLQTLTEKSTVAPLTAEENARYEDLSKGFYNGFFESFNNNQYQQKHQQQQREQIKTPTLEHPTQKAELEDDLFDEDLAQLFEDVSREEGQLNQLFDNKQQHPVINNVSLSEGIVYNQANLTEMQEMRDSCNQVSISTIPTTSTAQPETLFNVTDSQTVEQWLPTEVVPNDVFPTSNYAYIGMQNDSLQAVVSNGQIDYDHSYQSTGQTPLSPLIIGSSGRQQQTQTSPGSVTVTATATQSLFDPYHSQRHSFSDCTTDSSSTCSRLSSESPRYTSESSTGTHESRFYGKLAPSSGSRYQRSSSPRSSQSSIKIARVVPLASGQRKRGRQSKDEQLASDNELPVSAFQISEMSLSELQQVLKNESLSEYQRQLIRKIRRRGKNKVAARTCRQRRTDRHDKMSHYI
# Cytochrome P450 3A4 = Cytochrome P450 3A4 (Homo sapiens, UniProt P08684);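 also: CYP3A4 tested as one member of a cytochrome P450 panel screen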
# Cytochrome P450 2C9 = Cytochrome P450 2C9 (Homo sapiens, UniProt P11712)
# [6] = target: T6, Heat shock factor protein 1 (Mus musculus, UniProt P38532); assay: HSF1 potentiators in luciferase reporter cells, confirmation, cell-based, NIH3T3, luminescence, dose retest (AID 435004); assay type: functional;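 also: stress induced by proteasome inhibitor MG132 added 30 min after compound; luciferase reporter driven by HSF1 response element in NIH3T3 cells; actives raise luminescence as potentiators of the MG132 stress response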
# T6 sequence (P38532 whole entry): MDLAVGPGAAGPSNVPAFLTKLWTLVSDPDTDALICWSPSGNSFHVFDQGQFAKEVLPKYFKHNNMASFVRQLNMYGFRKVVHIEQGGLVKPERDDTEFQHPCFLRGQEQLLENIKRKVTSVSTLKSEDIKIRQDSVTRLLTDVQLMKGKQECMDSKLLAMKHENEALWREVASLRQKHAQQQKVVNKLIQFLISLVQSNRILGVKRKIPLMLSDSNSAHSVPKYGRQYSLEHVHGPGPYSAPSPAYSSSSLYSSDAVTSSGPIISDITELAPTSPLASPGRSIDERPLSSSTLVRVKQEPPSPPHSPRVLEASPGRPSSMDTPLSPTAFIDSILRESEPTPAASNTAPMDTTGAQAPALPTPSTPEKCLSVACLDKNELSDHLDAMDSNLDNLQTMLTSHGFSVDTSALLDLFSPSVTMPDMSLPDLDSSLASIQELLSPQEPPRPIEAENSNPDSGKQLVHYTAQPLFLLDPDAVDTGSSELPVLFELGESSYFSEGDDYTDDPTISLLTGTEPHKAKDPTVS
# [7] = microbe, parasite or virus in culture; assay type: functional; conditions: Mycobacterium tuberculosis
# [8] = target: T6, Heat shock factor protein 1; assay: inhibition of MG132-induced HSE-luciferase signal, confirmation, cell-based, NIH3T3, luminescence, dose retest (AID 2382); assay type: functional;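 also: NIH3T3 fibroblasts with HSF1-driven luciferase reporter stressed by proteasome inhibitor MG132; luminescence from HSF1-driven luciferase expression after 8 hours of MG132 stress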
# [9] = target: T7, Ubiquitin-conjugating enzyme E2 N (Homo sapiens, UniProt P61088); assay type: functional;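 also: Dose-response confirmation in a TR-FRET assay detecting UBC13-driven polyubiquitin chain formation, inhibition measured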
# T7 sequence (P61088 whole entry): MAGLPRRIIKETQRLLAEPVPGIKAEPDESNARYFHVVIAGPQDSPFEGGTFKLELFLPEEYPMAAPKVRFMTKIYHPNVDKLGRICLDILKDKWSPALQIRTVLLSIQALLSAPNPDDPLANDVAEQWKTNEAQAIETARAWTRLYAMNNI
# [10] = inhibitors of firefly luciferase expression or activity, dose response, H4 neuroglioma cells, luminescence (AID 1990); assay type: functional, cell-based
# [11] = Luminescence Cell-Based Dose Response HTS to Identify Inhibitors of 5'UTR Stem-Loop Driven Prion Protein mRNA Translation in H4 Neuroglioblastoma Cells. [Related pubchem assays: 1827 (Project Summary), 1813 (Primary HTS)]; assay type: functional
# [12] = inhibitors of SNCA 5'UTR-driven reporter translation, confirmation, H4 neuroglioma cells, luminescence (AID 1988); assay type: functional, cell-based
# [13] = target: FAD-linked sulfhydryl oxidase ALR (Homo sapiens, UniProt P55789); assay: inhibitors of human ALR sulfhydryl oxidase, dose response, biochemical, H2O2 detection, luminescence, cherry-pick (AID 493248)
# Chain of FAD-linked sulfhydryl oxidase ALR (P55789 whole entry): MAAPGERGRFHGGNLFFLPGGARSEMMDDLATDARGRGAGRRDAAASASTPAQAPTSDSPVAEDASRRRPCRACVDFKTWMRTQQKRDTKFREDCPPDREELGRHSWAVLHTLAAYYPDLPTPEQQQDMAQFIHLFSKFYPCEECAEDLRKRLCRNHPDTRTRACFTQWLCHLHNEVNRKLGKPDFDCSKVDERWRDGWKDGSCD
# T1 sequence (P11940 whole entry): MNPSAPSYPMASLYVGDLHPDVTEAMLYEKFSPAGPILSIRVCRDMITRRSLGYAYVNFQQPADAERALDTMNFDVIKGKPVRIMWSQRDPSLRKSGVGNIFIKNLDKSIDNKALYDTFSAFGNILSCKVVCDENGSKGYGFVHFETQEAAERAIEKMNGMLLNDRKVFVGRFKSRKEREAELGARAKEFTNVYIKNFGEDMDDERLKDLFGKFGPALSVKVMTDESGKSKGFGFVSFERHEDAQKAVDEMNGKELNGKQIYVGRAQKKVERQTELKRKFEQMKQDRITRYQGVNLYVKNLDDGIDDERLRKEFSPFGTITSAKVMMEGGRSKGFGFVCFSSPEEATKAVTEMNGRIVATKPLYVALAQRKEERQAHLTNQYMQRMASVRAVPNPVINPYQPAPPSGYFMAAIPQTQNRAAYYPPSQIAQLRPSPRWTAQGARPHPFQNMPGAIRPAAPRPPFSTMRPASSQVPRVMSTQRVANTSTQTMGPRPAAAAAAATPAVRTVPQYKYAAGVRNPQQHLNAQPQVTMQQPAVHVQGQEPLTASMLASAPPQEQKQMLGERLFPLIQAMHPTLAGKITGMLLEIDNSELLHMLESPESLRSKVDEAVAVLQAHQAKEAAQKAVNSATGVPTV
# Chain of Cytochrome P450 3A4 (P08684 whole entry): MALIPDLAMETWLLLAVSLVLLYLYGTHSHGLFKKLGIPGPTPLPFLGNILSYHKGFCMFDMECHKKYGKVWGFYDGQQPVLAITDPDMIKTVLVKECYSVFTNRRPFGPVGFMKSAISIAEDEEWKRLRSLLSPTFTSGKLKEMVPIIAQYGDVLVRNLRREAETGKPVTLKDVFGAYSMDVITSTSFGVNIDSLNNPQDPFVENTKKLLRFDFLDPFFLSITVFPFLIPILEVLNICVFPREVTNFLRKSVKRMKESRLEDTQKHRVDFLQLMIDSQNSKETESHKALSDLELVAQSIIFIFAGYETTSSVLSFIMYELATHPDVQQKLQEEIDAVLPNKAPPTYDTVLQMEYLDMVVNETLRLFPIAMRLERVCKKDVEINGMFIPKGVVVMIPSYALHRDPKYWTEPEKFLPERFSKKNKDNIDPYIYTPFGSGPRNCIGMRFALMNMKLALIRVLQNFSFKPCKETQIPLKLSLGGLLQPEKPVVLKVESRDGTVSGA
# Chain of Cytochrome P450 2C9 (P11712 whole entry): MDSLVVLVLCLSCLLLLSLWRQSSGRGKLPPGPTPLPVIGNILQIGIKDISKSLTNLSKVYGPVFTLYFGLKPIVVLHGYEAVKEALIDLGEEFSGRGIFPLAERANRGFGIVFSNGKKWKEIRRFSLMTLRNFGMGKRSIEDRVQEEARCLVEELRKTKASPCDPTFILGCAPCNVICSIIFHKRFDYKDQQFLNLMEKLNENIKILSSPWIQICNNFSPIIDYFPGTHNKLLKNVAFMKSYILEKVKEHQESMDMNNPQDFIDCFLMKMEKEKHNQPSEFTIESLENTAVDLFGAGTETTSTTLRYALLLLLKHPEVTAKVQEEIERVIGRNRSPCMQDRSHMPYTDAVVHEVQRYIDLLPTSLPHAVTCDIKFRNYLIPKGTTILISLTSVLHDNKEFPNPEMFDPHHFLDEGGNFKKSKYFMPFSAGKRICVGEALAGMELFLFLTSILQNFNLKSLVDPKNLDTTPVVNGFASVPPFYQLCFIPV
smiles,measurement,setting,value
NC(S)=NN=C1c2cc(S(=O)(=O)N3CCOCC3)ccc2-c2ccc(S(=O)(=O)N3CCOCC3)cc21,IC50,[1],> 66 µM (inactive)
same,IC50,[2],> 66 µM (inactive)
Cc1cccc(-n2c(N)cc(=O)nc2SCC(=O)Nc2cc(C)on2)c1,IC50,[1],> 66 µM (inactive)
same,IC50,[2],> 66 µM (inactive)
O=C(NN1C(=O)c2ccccc2NC1c1ccccn1)c1ccc(Br)cc1 (stereo not given),EC50,[3],64.9 µM (active)
same,EC50,[4],15.5 µM (active)
c1ccc(CN2CCN(Cc3ccc4ccccc4c3)CC2)cc1,IC50,[5],123 µM (active)
Nc1cc(O)nc(SCC(=O)Nc2ccc(S(=O)(=O)N3CCOCC3)cc2)n1,IC50,Protein skinhead-1,> 100 µM (inactive)
same,AC50,Cytochrome P450 3A4,28.2 µM (inconclusive)
same,AC50,Cytochrome P450 2C9,20 µM (inconclusive)
c1ccc(-c2ccccc2OCCOCCN2CCOCC2)cc1,IC50,[5],58.9 µM (active)
Cc1cccn2c(=O)c3cc(C(=O)N(C)C)n(C)c3nc12,IC50,[1],> 66 µM (inactive)
same,IC50,[2],39.3 µM (inactive)
CSc1ccc(CCNC(=O)c2nn(C)c3c2CS(=O)(=O)c2ccccc2-3)cc1,EC50,[6],> 260 µM (inactive)
Cc1c(C(=O)NCc2ccc3c(c2)cc(C)n3C)cccc1[N+](=O)[O-],IC50,[1],> 66 µM (inactive)
same,IC50,[2],> 66 µM (inactive)
CCOC(=O)C1=C(c2ccccc2)NC(=O)NC1c1cc(Br)c(O)c(OC)c1 (stereo not given),EC50,[6],> 260 µM (inactive)
Clc1ccc(Nc2ccc(-n3ccnc3)nn2)cc1Cl,CC50,[7],> 40 µM (active)
same,IC50,Protein skinhead-1,> 100 µM (inactive)
Nc1nc(Cl)nc2ccc(Br)cc12,EC50,[8],5.71 µM (active)
same,IC50,[9],> 20 µM (inactive)
COc1cccc(-c2nc(CSCC(=O)NCC3CCCO3)c(C)o2)c1 (stereo not given),IC50,[1],> 66 µM (inactive)
same,IC50,[2],> 66 µM (inactive)
COc1ccc(C)cc1-n1c(=O)c2ccccc2c2ccccc2c1=O,EC50,[6],11.7 µM (active)
N=C1/C(=C\c2ccc(SCc3ccccc3)o2)C(=O)N=C2SC(CC(=O)N3CCOCC3)=NN12,EC50,[3],63.4 µM (active)
same,EC50,[4],33.3 µM (active)
Cc1ccc2oc(C(=O)N3CCC(O)(c4cccc(C(F)(F)F)c4)CC3)c(C)c2c1,EC50,[6],54.9 µM (active)
CCOC(=O)/C(C#N)=C/c1cn(CCC(=O)O)nc1-c1ccc(Cl)cc1,EC50,[6],> 260 µM (inactive)
CCOC(=O)c1c(N/C=C2/C(=O)NC(=O)N(c3cccc(C)c3)C2=O)sc2c1CCCC2,EC50,[3],> 300 µM (not active)
same,EC50,[4],> 300 µM (not active)
COc1cc(-c2cc(C(=O)Nc3ccc(S(N)(=O)=O)cc3)c3ccccc3n2)cc(OC)c1OC,IC50,[9],> 20 µM (inactive)
CCC(Sc1nc2nnc(C)c-2c(N)n1-c1ccc(C)c(Cl)c1)C(=O)N1CCOCC1 (stereo not given),EC50,[6],> 260 µM (inactive)
CCCNc1cc(S)nc(N)n1,IC50,[1],> 66 µM (inactive)
same,IC50,[2],> 66 µM (inactive)
CN(C)c1ccc(NC(=O)c2ccc3nsnc3c2)cc1,IC50,[5],65.4 µM (active)
CC1CCN(c2ccccc2NC(=S)NC(=O)C(C)(C)C)CC1,EC50,[10],16 µM (active)
same,EC50,[11],> 120 µM (not active)
same,EC50,[12],> 120 µM (not active)
same,IC50,[1],> 66 µM (inactive)
same,IC50,[2],> 66 µM (inactive)
O=C(c1ccccc1)c1ccc(C(=O)N2CCN(c3ccc(O)cc3)CC2)cc1,IC50,[5],34 µM (active)
CCC1CCCCN1CCCNC(=O)C1CCN(c2ncnc3c2nc2n3CCCCC2)CC1 (stereo not given),IC50,[9],> 20 µM (inactive)
C#CCOCCOCCOCCNc1nc(N2CCN(C(=O)[C@H](CO)n3cc([C@@H](N)C(C)C)nn3)CC2)nc(N2CCN(C(=O)[C@H](CCCCN)n3cc([C@@H](N)[C@H](C)CC)nn3)CC2)n1,IC50,[9],> 20 µM (inactive)
NC(=S)N=Nc1c(O)[nH]c2c(Cl)cc(Cl)cc12,IC50,[1],> 66 µM (inactive)
same,IC50,[2],> 66 µM (inactive)
Cc1ccccc1C(=O)OC1OC(O)=C(Cl)/C1=N\c1ccccc1 (stereo not given),IC50,[9],> 20 µM (inactive)
COc1ccc(/C=C(\NC(=O)c2ccccc2)C(=O)N/N=C/c2sccc2C)cc1,EC50,[6],> 260 µM (inactive)
N#Cc1c(-c2ccc(Cl)cc2)c2c([nH]c1=O)-c1ccccc1OC2,EC50,[3],> 300 µM (not active)
same,EC50,[4],53 µM (active)
COc1cc(/C=N/NC(=O)c2cc3ccccc3[nH]2)ccc1O,AC50,[13],0.393 µM (active)
same,IC50,[5],17.8 µM (active)
CCOc1cc(/C=N/n2c(C)nnc2C)ccc1O,IC50,[5],103 µM (active)
CCN(CC)S(=O)(=O)c1cccc(-c2nnc(S)n2/N=C/c2ccc(OC(F)F)cc2)c1,IC50,[5],147 µM (active)
CCc1cc(/C(Cc2csc(C)n2)=N/O)c(O)cc1O,IC50,[5],28.3 µM (active)
Cc1ccc(/C=N/NC(=O)c2cccc(S(=O)(=O)Nc3ccccc3Cl)c2)o1,EC50,[6],> 260 µM (inactive)

# Reference: ChEMBL document CHEMBL1201862, “PubChem BioAssay data set” (2004)
